Patent US5200409A, “Composition and use of substituted 1,3-dithiolo-and 1,4-dithiinoquinoxalines as an antimicrobial” (The Dow Chemical Company, priority 1992, dated 1993)
≈ marks a conversion by molar mass, not a printed value. Where two headings read alike, the source gives them in different places.

Legend:
Aspergillus niger (An) = experiment: Minimum inhibitory concentration (MIC) in malt yeast agar; assay type: cell-based, Aspergillus niger ATCC 16404; details: read-out: Minimum Inhibitory Concentration, An
Procedure, shortened: (§1)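 These fungal MICs come from an agar dilution series in malt yeast agar spanning 500 to 1.0 ppm. The plates were incubated at 30° C and read after 72 hours.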

[1] = system: Aureobasidium pullulan (Ap); experiment: as above; assay type: cell-based, Aureobasidium pullulan ATCC 16622; details: read-out: Minimum Inhibitory Concentration, Ap
Procedure, shortened: as §1

[2] = system: Pseudomonas aeruginosa (PRD-10); experiment: Minimum inhibitory concentration (MIC) in nutrient agar; assay type: cell-based, Pseudomonas aeruginosa ATCC 15442
Procedure, shortened: (§2)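 MIC is taken as the lowest agar concentration preventing bacterial growth after 48 h at 30° C. Compound, added from a 1% acetone/water stock, ranges 1.0–500 ppm in nutrient agar at pH 6.8 or 8.2, with compound-free controls.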

Candida albicans (Ca) = experiment: Minimum inhibitory concentration (MIC) in malt yeast agar; assay type: cell-based, Candida albicans ATCC 10231; details: read-out: Minimum Inhibitory Concentration, Ca
Procedure, shortened: (§3)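 Compound dispersed in malt yeast agar at final 500, 250, 100, 50, 25, 10, 5, 2.5, 1.0 and 0 ppm (from 1% acetone/water solution); plates dried 24 h, then inoculated with saline/octylphenoxy polyethoxy ethanol suspensions of 7-day cultures diluted 1:9. Incubated at 30° C; read at 48 h for yeast, 72 h for fungi.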

Escherichia coli (Ec) = experiment: Minimum inhibitory concentration (MIC) in nutrient agar; assay type: cell-based, Escherichia coli ATCC 11229
Procedure, shortened: as §2

[3] = system: Klebsiella pneumoniae (Kp); experiment: as above; assay type: cell-based, Klebsiella pneumoniae ATCC 8308
Procedure, shortened: as §2

[4] = system: Salmonella choleraesuis (Sc); experiment: as above; assay type: cell-based, Salmonella choleraesuis ATCC 10708; details: Salmonella enterica
Procedure, shortened: as §2

[5] = system: Enterobacter aerogenes (Ea); experiment: as above; assay type: cell-based, Enterobacter aerogenes ATCC 13048; details: Klebsiella aerogenes
Procedure, shortened: as §2

[6] = system: Penicillium chrysogenum (Pc); experiment: Minimum inhibitory concentration (MIC) in malt yeast agar; assay type: cell-based, Penicillium chrysogenum ATCC 9480; details: read-out: Minimum Inhibitory Concentration, Pc
Procedure, shortened: as §1

[7] = system: Staphylococcus aureus (Sa); experiment: Minimum inhibitory concentration (MIC) in nutrient agar; assay type: cell-based, Staphylococcus aureus ATCC 6538
Procedure, shortened: as §2

[8] = system: Pseudomonas aeruginosa (Pa); experiment: as above; assay type: cell-based, Pseudomonas aeruginosa ATCC 10145; details: 48 hours
Procedure, shortened: as §2

Trichoderma viride (Tv) = experiment: Minimum inhibitory concentration (MIC) in malt yeast agar; assay type: cell-based, Trichoderma viride ATCC 8678; details: read-out: Minimum Inhibitory Concentration, Tv
Procedure, shortened: as §1

Bacillus subtilis (Bs) = experiment: Minimum inhibitory concentration (MIC) in nutrient agar; assay type: cell-based, Bacillus subtilis ATCC 8473
Procedure, shortened: as §2

Fusarium oxysporum (Fo) = experiment: Minimum inhibitory concentration (MIC) in malt yeast agar; assay type: cell-based, Fusarium oxysporum ATCC 48112; details: read-out: Minimum Inhibitory Concentration, Fo
Procedure, shortened: as §1

Proteus vulgaris (Pv) = experiment: Minimum inhibitory concentration (MIC) in nutrient agar; assay type: cell-based, Proteus vulgaris ATCC 881
Procedure, shortened: as §2

[9] = system: Saccharomyces cerevisiae (Sc); experiment: Minimum inhibitory concentration (MIC) in malt yeast agar; assay type: cell-based, Saccharomyces cerevisiae ATCC 4105; details: read-out: Minimum Inhibitory Concentration, Sc
Procedure, shortened: as §3

[10] = malt yeast agar, 30° C., 72 hours for fungi
[11] = malt yeast agar, 30° C., 48 hours for yeast and 72 hours for fungi
[12] = 48 h, pH 6.8, read-out: Minimum Inhibitory Concentration, PRD
[13] = 48 h, pH 8.2, read-out: Minimum Inhibitory Concentration, PRD
[14] = malt yeast agar, 30° C., 48 hours for yeast
[15] = 48 h, pH 6.8, read-out: Minimum Inhibitory Concentration, Ec
[16] = 48 h, pH 8.2, read-out: Minimum Inhibitory Concentration, Ec
[17] = 48 h, pH 8.2, read-out: Minimum Inhibitory Concentration, Kp
[18] = pH 6.8, nutrient agar, 30° C., 48 hours, read-out: Minimum Inhibitory Concentration, Kp
[19] = 48 h, pH 6.8, read-out: Minimum Inhibitory Concentration, Sc
[20] = 48 h, pH 8.2, read-out: Minimum Inhibitory Concentration, Sc
[21] = 48 h, pH 6.8, read-out: Minimum Inhibitory Concentration, Ea
[22] = 48 h, pH 8.2, read-out: Minimum Inhibitory Concentration, Ea
[23] = 48 h, pH 8.2, read-out: Minimum Inhibitory Concentration, Sa
[24] = pH 6.8, nutrient agar, 30° C., 48 hours, read-out: Minimum Inhibitory Concentration, Sa
[25] = 48 h, pH 8.2, read-out: Minimum Inhibitory Concentration, Bs
[26] = 48 h, pH 6.8, read-out: Minimum Inhibitory Concentration, Pv
[27] = 48 h, pH 8.2, read-out: Minimum Inhibitory Concentration, Pv
[28] = pH 6.8, nutrient agar, 30° C., 48 hours, read-out: Minimum Inhibitory Concentration, Bs

## N#CC(C#N)=C1Sc2nc3ccc(Cl)cc3nc2S1 [O, 6-chloro-1,3-dithiolo-(4,5-b)-quinoxaline-2-ylidene-propanedinitrile]
Aspergillus niger (An); [10]
  MIC: 500 µg/mL (≈ 1650 µM)
[1]; [11]
  MIC: 500 µg/mL (≈ 1650 µM)
[2]; [12]
  MIC: > 500 µg/mL
[2]; [13]
  MIC: > 500 µg/mL
Candida albicans (Ca); [14]
  MIC: > 500 µg/mL
Escherichia coli (Ec); [15]
  MIC: > 500 µg/mL
Escherichia coli (Ec); [16]
  MIC: > 500 µg/mL
[3]; [17]
  MIC: > 500 µg/mL
[3]; [18]
  MIC: > 500 µg/mL
[4]; [19]
  MIC: > 500 µg/mL
[4]; [20]
  MIC: > 500 µg/mL
[5]; [21]
  MIC: > 500 µg/mL
[5]; [22]
  MIC: > 500 µg/mL
[6]; [10]
  MIC: 500 µg/mL (≈ 1650 µM)
[7]; [23]
  MIC: > 500 µg/mL
[7]; [24]
  MIC: > 500 µg/mL
[8]; pH 6.8, 30° C.
  MIC: > 500 µg/mL
[8]; pH 8.2, 30° C.
  MIC: > 500 µg/mL
Trichoderma viride (Tv); [10]
  MIC: > 500 µg/mL
Bacillus subtilis (Bs); 48 h, pH 6.8, read-out: Minimum Inhibitory Concentration, Bs
  MIC: > 500 µg/mL
Bacillus subtilis (Bs); [25]
  MIC: > 500 µg/mL
Fusarium oxysporum (Fo); [10]
  MIC: > 500 µg/mL
Proteus vulgaris (Pv); [26]
  MIC: > 500 µg/mL
Proteus vulgaris (Pv); [27]
  MIC: > 500 µg/mL
[9]; [14]
  MIC: > 500 µg/mL

## N#CC1=C(C#N)Sc2nc3cc([N+](=O)[O-])ccc3nc2S1 [A, 7-nitro-1,4-dithiino-(2,3-b)-quinoxaline-2,3-dicarbonitrile]
[1]
  MIC: 2.5 µg/mL (≈ 7.98 µM)
[2]; [13]
  MIC: > 500 µg/mL
[2]; pH 6.8, nutrient agar, 30° C., 48 hours, read-out: Minimum Inhibitory Concentration, PRD
  MIC: 250 µg/mL (≈ 798 µM)
Candida albicans (Ca); 48 h
  MIC: 2.5 µg/mL (≈ 7.98 µM)
Escherichia coli (Ec); [16]
  MIC: > 500 µg/mL
Escherichia coli (Ec); pH 6.8, nutrient agar, 30° C., 48 hours, read-out: Minimum Inhibitory Concentration, Ec
  MIC: 25 µg/mL (≈ 79.8 µM)
[3]; [17]
  MIC: 500 µg/mL (≈ 1600 µM)
[3]; [18]
  MIC: 25 µg/mL (≈ 79.8 µM)
[4]; [20]
  MIC: > 500 µg/mL
[4]; pH 6.8, nutrient agar, 30° C., 48 hours, read-out: Minimum Inhibitory Concentration, Sc
  MIC: 50 µg/mL (≈ 160 µM)
[5]; [22]
  MIC: > 500 µg/mL
[5]; pH 6.8, nutrient agar, 30° C., 48 hours, read-out: Minimum Inhibitory Concentration, Ea
  MIC: 100 µg/mL (≈ 319 µM)
[7]; 48 h, pH 6.8, read-out: Minimum Inhibitory Concentration, Sa
  MIC: < 10 µg/mL
[7]; pH 8.2, nutrient agar, 30° C., 48 hours, read-out: Minimum Inhibitory Concentration, Sa
  MIC: 100 µg/mL (≈ 319 µM)
[8]; pH 6.8, 30° C.
  MIC: 100 µg/mL (≈ 319 µM)
[8]; pH 8.2, 30° C.
  MIC: > 500 µg/mL
Trichoderma viride (Tv); 72 h
  MIC: 10 µg/mL (≈ 31.9 µM)
Bacillus subtilis (Bs); [28]
  MIC: < 10 µg/mL
Bacillus subtilis (Bs); pH 8.2, nutrient agar, 30° C., 48 hours, read-out: Minimum Inhibitory Concentration, Bs
  MIC: 100 µg/mL (≈ 319 µM)
Fusarium oxysporum (Fo); [10]
  MIC: 2.5 µg/mL (≈ 7.98 µM)
Proteus vulgaris (Pv); [27]
  MIC: > 500 µg/mL
Proteus vulgaris (Pv); pH 6.8, nutrient agar, 30° C., 48 hours, read-out: Minimum Inhibitory Concentration, Pv
  MIC: 50 µg/mL (≈ 160 µM)
[9]; 48 h
  MIC: 2.5 µg/mL (≈ 7.98 µM)

## Cc1ccc2nc3c(nc2c1)SC(C#N)=C(C#N)S3 [D, 7-Methyl-1,4-dithiino-(2,3-b)quinoxaline-2,3-dicarbonitrile]
Aspergillus niger (An); 72 h
  MIC: 50 µg/mL (≈ 177 µM)
[1]; [11]
  MIC: 25 µg/mL (≈ 88.5 µM)
[2]; [12]
  MIC: > 500 µg/mL
[2]; [13]
  MIC: > 500 µg/mL
Candida albicans (Ca); 48 h
  MIC: 50 µg/mL (≈ 177 µM)
Escherichia coli (Ec); [15]
  MIC: > 500 µg/mL
Escherichia coli (Ec); [16]
  MIC: > 500 µg/mL
[3]; [17]
  MIC: > 500 µg/mL
[3]; [18]
  MIC: > 500 µg/mL
[4]; [19]
  MIC: > 500 µg/mL
[4]; [20]
  MIC: > 500 µg/mL
[5]; [21]
  MIC: > 500 µg/mL
[5]; [22]
  MIC: > 500 µg/mL
[6]; 72 h
  MIC: 50 µg/mL (≈ 177 µM)
[7]; [23]
  MIC: 500 µg/mL (≈ 1770 µM)
[7]; [24]
  MIC: 100 µg/mL (≈ 354 µM)
[8]; pH 6.8, 30° C.
  MIC: > 500 µg/mL
[8]; pH 8.2, 30° C.
  MIC: > 500 µg/mL
Trichoderma viride (Tv); 72 h
  MIC: 100 µg/mL (≈ 354 µM)
Bacillus subtilis (Bs); [25]
  MIC: 250 µg/mL (≈ 885 µM)
Bacillus subtilis (Bs); [28]
  MIC: 25 µg/mL (≈ 88.5 µM)
Fusarium oxysporum (Fo); 72 h
  MIC: 50 µg/mL (≈ 177 µM)
Proteus vulgaris (Pv); [26]
  MIC: > 500 µg/mL
Proteus vulgaris (Pv); [27]
  MIC: > 500 µg/mL
[9]; 48 h
  MIC: 25 µg/mL (≈ 88.5 µM)

## N#CC1=C(C#N)Sc2nc3ccccc3nc2S1 [E, 1,4-dithiino-(2,3-b)-quinoxaline-2,3-dicarbonitrile]
Aspergillus niger (An); [10]
  MIC: < 10 µg/mL
[1]; [11]
  MIC: < 10 µg/mL
[2]; [12]
  MIC: > 500 µg/mL
[2]; [13]
  MIC: > 500 µg/mL
Candida albicans (Ca); [14]
  MIC: < 10 µg/mL
Escherichia coli (Ec); [15]
  MIC: > 500 µg/mL
Escherichia coli (Ec); [16]
  MIC: > 500 µg/mL
[3]; [17]
  MIC: > 500 µg/mL
[3]; [18]
  MIC: 500 µg/mL (≈ 1860 µM)
[4]; [19]
  MIC: > 500 µg/mL
[4]; [20]
  MIC: > 500 µg/mL
[5]; [21]
  MIC: > 500 µg/mL
[5]; [22]
  MIC: > 500 µg/mL
[6]; [10]
  MIC: < 10 µg/mL
[7]; [23]
  MIC: < 10 µg/mL
[7]; [24]
  MIC: 25 µg/mL (≈ 93.2 µM)
[8]; pH 6.8, 30° C.
  MIC: > 500 µg/mL
[8]; pH 8.2, 30° C.
  MIC: > 500 µg/mL
Trichoderma viride (Tv); 72 h
  MIC: 100 µg/mL (≈ 373 µM)
Bacillus subtilis (Bs); [25]
  MIC: > 500 µg/mL
Bacillus subtilis (Bs); [28]
  MIC: 50 µg/mL (≈ 186 µM)
Fusarium oxysporum (Fo); 72 h
  MIC: 50 µg/mL (≈ 186 µM)
Proteus vulgaris (Pv); [26]
  MIC: > 500 µg/mL
Proteus vulgaris (Pv); [27]
  MIC: > 500 µg/mL
[9]; [14]
  MIC: < 10 µg/mL
